Results reported in patent US12528800B2, “Pesticidal compounds” (BASF SE, priority 2018, dated 2026).

Tests used:
Type in all cases: in vivo
[1] = test system: yellow fever mosquito (Aedes aegypti); experiment: whole plant or invertebrate; details: 48 h, larval mortality visually assessed after 2 days, read-out: mortality in comparison with untreated controls
Method: For evaluating control of yellow fever mosquito (Aedes aegypti) the test unit consisted of 96-well-microtiter plates containing 200 μl of tap water per well and 5-15 freshly hatched A. aegypti larvae.
The active compounds or mixtures were formulated using a solution containing 75% (v/v) water and 25% (v/v) DMSO. Different concentrations of formulated compounds or mixtures were sprayed onto the insect diet at 2.5 μl using a custom built micro atomizer, at two replications.
For experimental mixtures in these tests identical volumes of both mixing partners at the desired concentrations respectively, were mixed together.
After application, microtiter plates were incubated at 28+1° C., 80+5% RH for 2 days. Larval mortality was then visually assessed.

[2] = test system: Orchid thrips (Dichromothrips corbetti); experiment: Action on orchid thrips (Dichromothrips corbetti), floral-immersion technique; details: adult thrips, 72 hours after treatment, read-out: mortality in comparison with untreated controls
Method: Dichromothrips corbetti adults used for bioassay were obtained from a colony maintained continuously under laboratory conditions. For testing purposes, the test compound is diluted in a 1:1 mixture of acetone:water (vol:vol), plus Kinetic® HV at a rate of 0.01% v/v.
Thrips potency of each compound was evaluated by using a floral-immersion technique. All petals of individual, intact orchid flowers were dipped into treatment solution and allowed to dry in Petri dishes. Treated petals were placed into individual re-sealable plastic along with about 20 adult thrips. All test arenas were held under continuous light and a temperature of about 28° C. for duration of the assay. After 3 days, the numbers of live thrips were counted on each petal. The percent mortality was recorded 72 hours after treatment.

[3] = test system: boll weevil (Anthonomus grandis); experiment: Action on boll weevil (Anthonomus grandis), microtiter plate diet test; details: 120 h, egg and larval mortality after 5 days, read-out: mortality in comparison with untreated controls
Method: For evaluating control of boll weevil (Anthonomus grandis) the test unit consisted of 96-well-microtiter plates containing an insect diet and 5-10 A. grandis eggs.
The compounds were formulated using a solution containing 75% (v/v) water and 25% (v/v) DMSO. Different concentrations of formulated compounds were sprayed onto the insect diet at 5 μl, using a custom built micro atomizer, at two replications.
After application, microtiter plates were incubated at about 25+1° C. and about 75+5% relative humidity for 5 days. Egg and larval mortality was then visually assessed.

[4] = test system: tobacco budworm (Heliothis virescens); experiment: Action on tobacco budworm (Heliothis virescens), microtiter plate diet test; details: 120 h, egg and larval mortality after 5 days, read-out: mortality in comparison with untreated controls
Method: For evaluating control of tobacco budworm (Heliothis virescens) the test unit consisted of 96-well-microtiter plates containing an insect diet and 15-25 H. virescens eggs.
The compounds were formulated using a solution containing 75% v/v water and 25% v/v DMSO. Different concentrations of formulated compounds were sprayed onto the insect diet at 10 μl, using a custom-built micro atomizer, at two replications.
After application, microtiter plates were incubated at about 28+1° C. and about 80+5% relative humidity for 5 days. Egg and larval mortality were then visually assessed.

[5] = test system: Diamond back moth (Plutella xylostella); experiment: Action on diamond back moth (Plutella xylostella), cabbage leaf dip; details: foliar, 3rd instar larvae on dipped cabbage leaves, 72 hours after treatment, read-out: mortality in comparison with untreated controls
Method: The active compound is dissolved at the desired concentration in a mixture of 1:1 (v/v) distilled water: acetone. Surfactant (Kinetic® HV) is added at a rate of 0.01% (v/v). The test solution is prepared at the day of use.
Leaves of cabbage were dipped in test solution and air-dried. Treated leaves were placed in petri dishes lined with moist filter paper and inoculated with ten 3rd instar larvae. Mortality was recorded 72 hours after treatment. Feeding damages were also recorded using a scale of 0-100%.

[6] = test system: Southern armyworm (Spodoptera eridania), 2nd instar larvae; experiment: Action on southern armyworm (Spodoptera eridania), 2nd instar larvae, sprayed lima bean plants; details: 96 h, 2nd instar larvae on lima bean plants, 4 days after treatment, read-out: mortality in comparison with untreated controls
Method: The active compounds were formulated by a Tecan liquid handler in 100% cyclohexanone as a 10,000 ppm solution supplied in tubes. The 10,000 ppm solution was serially diluted in 100% cyclohexanone to make interim solutions. These served as stock solutions for which final dilutions were made by the Tecan in 50% acetone:50% water (v/v) into 10 or 20 ml glass vials. A nonionic surfactant (Kinetic®) was included in the solution at a volume of 0.01% (v/v). The vials were then inserted into an automated electrostatic sprayer equipped with an atomizing nozzle for application to plants/insects.
Lima bean plants (variety Sieve) were grown 2 plants to a pot and selected for treatment at the 1st true leaf stage. Test solutions were sprayed onto the foliage by an automated electrostatic plant sprayer equipped with an atomizing spray nozzle. The plants were dried in the sprayer fume hood and then removed from the sprayer. Each pot was placed into perforated plastic bags with a zip closure. About 10 to 11 armyworm larvae were placed into the bag and the bags zipped closed. Test plants were maintained in a growth room at about 25° C. and about 20-40% relative humidity for 4 days, avoiding direct exposure to fluorescent light (24 hour photoperiod) to prevent trapping of heat inside the bags. Mortality and reduced feeding were assessed 4 days after treatment, compared to untreated control plants.

CC(C)c1ccccc1NC(=S)N/N=C/c1ccc(-c2cc(NCc3ccc(OC(F)(F)F)cc3)n(C)n2)cc1 [Compound C-3, 1-(2-isopropylphenyl)-3-[(E)-[4-[1-methyl-5-[[4-(trifluoromethoxy)phenyl]methylamino]pyrazol-3-yl]phenyl]methyleneamino]thiourea]
mortality at 800 ppm [1]: ≥ 50%
mortality at 500 ppm [2]: ≥ 75%
mortality at 800 ppm [3]: ≥ 75%
mortality at 800 ppm [4]: ≥ 75%
mortality at 500 ppm [5]: ≥ 75%
mortality at 300 ppm [6]: ≥ 75%

CC(C)c1ccccc1NC(=S)N/N=C/c1ccc(-c2cc(NC(=N)c3ccc(OC(F)(F)F)cc3)n(C)n2)cc1 [Compound C-5, 1-(2-isopropylphenyl)-3-[(E)-[4-[1-methyl-5-[[4-(trifluoromethoxy)benzenecarboximidoyl]amino]pyrazol-3-yl]phenyl]methyleneamino]thiourea]
mortality at 800 ppm [1]: ≥ 50%
mortality at 500 ppm [2]: ≥ 75%
mortality at 800 ppm [3]: ≥ 75%
mortality at 800 ppm [4]: ≥ 75%
mortality at 500 ppm [5]: ≥ 75%
mortality at 300 ppm [6]: ≥ 75%

CC(C)c1ccccc1N1C(=O)CS/C1=N\N=C\c1ccc(-c2cc(NC(=N)c3ccc(OC(F)(F)F)cc3)n(C)n2)cc1 [Compound C-6, N-[5-[4-[(E)-[(Z)-[3-(2-isopropylphenyl)-4-oxo-thiazolidin-2-ylidene]hydrazono]methyl]phenyl]-2-methyl-pyrazol-3-yl]-4-(trifluoromethoxy) benzamidine]
mortality at 800 ppm [1]: ≥ 50%
mortality at 800 ppm [3]: ≥ 75%
mortality at 800 ppm [4]: ≥ 75%
mortality at 500 ppm [5]: ≥ 75%
mortality at 300 ppm [6]: ≥ 75%

CC(C)c1ccccc1/N=C1\SCC(=O)N1/N=C/c1ccc(-c2cc(OCc3ccc(OC(F)(F)F)cc3)n(C)n2)cc1 [Compound C-12, (2Z)-2-(2-isopropylphenyl)imino-3-[(E)-[4-[1-methyl-5-[[4-(trifluoromethoxy)phenyl]methoxy]pyrazol-3-yl]phenyl]methyleneamino]thiazolidin-4-one]
mortality at 800 ppm [1]: ≥ 50%
mortality at 800 ppm [3]: ≥ 75%
mortality at 800 ppm [4]: ≥ 75%
mortality at 500 ppm [5]: ≥ 75%
mortality at 300 ppm [6]: ≥ 75%

Cc1c(-c2ccc(/C=N/NC(=S)Nc3ccccc3C(C)C)cc2)nn(C)c1NC(=O)c1ccc(C(F)(F)F)cc1 [Compound C-15, N-[5-[4-[(E)-[(2-isopropylphenyl)carbamothioylhydrazono]methyl]phenyl]-2,4-dimethyl-pyrazol-3-yl]-4-(trifluoromethyl)benzamide]
mortality at 500 ppm [2]: ≥ 75%
mortality at 800 ppm [3]: ≥ 75%
mortality at 800 ppm [4]: ≥ 75%
mortality at 500 ppm [5]: ≥ 75%
mortality at 300 ppm [6]: ≥ 75%

CCn1nc(-c2ccc(/C=N/NC(=S)Nc3ccccc3C(C)C)cc2)cc1NC(=O)c1ccc(OC(F)(F)F)cc1 [Compound C-29, N-[2-ethyl-5-[4-[(E)-[(2-isopropylphenyl)carbamothioylhydrazono]methyl]phenyl]pyrazol-3-yl]-4-(trifluoromethoxy)benzamide]
mortality at 800 ppm [1]: ≥ 50%
mortality at 500 ppm [2]: ≥ 75%
mortality at 800 ppm [3]: ≥ 75%
mortality at 800 ppm [4]: ≥ 75%
mortality at 500 ppm [5]: ≥ 75%
mortality at 300 ppm [6]: ≥ 75%

CCn1nc(-c2ccc(/C=N/O[C@@H]3O[C@@H](C)[C@H](OC)[C@@H](OC)[C@H]3OC)cc2)cc1NC(=O)c1ccc(OC(F)(F)F)cc1 [Compound C-32, N-[2-ethyl-5-[4-[(E)-[(2S,3R,4R,5S,6S)-3,4,5-trimethoxy-6-methyl-tetrahydropyran-2-yl]oxyiminomethyl]phenyl]pyrazol-3-yl]-4-(trifluoromethoxy)benzamide]
mortality at 800 ppm [1]: ≥ 50%
mortality at 800 ppm [3]: ≥ 75%
mortality at 800 ppm [4]: ≥ 75%
mortality at 500 ppm [5]: ≥ 75%
mortality at 300 ppm [6]: ≥ 75%

CCn1nc(-c2ccc(NC(=O)O[C@@H]3O[C@@H](C)[C@H](OC)[C@@H](OC)[C@H]3OC)cc2)cc1NC(=O)c1ccc(OC(F)(F)F)cc1 [Compound C-33, [(2S,3R,4R,5S,6S)-3,4,5-trimethoxy-6-methyl-tetrahydropyran-2-yl] N-[4-[1-ethyl-5-[[4-(trifluoromethoxy)benzoyl]amino]pyrazol-3-yl]phenyl]carbamate]
mortality at 800 ppm [1]: ≥ 50%
mortality at 800 ppm [3]: ≥ 75%
mortality at 800 ppm [4]: ≥ 75%
mortality at 500 ppm [5]: ≥ 75%

CCn1nc(-c2ccc(NC(=O)O[C@@H]3O[C@@H](C)[C@H](OC)[C@@H](OC)[C@H]3OC)cc2)cc1NCc1ccc(OC(F)(F)F)cc1 [Compound C-40, [(2S,3R,4R,5S,6S)-3,4,5-trimethoxy-6-methyl-tetrahydropyran-2-yl] N-[4-[1-ethyl-5-[[4-(trifluoromethoxy)phenyl]methylamino]pyrazol-3-yl]phenyl]carbamate]
mortality at 800 ppm [1]: ≥ 50%
mortality at 800 ppm [3]: ≥ 75%
mortality at 800 ppm [4]: ≥ 75%
mortality at 500 ppm [5]: ≥ 75%

CC(C)c1ccccc1N1C(=O)CS/C1=N\N=C\c1ccc(-c2cc(C(=O)Nc3ccc(OC(F)(F)F)cc3)n(C)n2)cc1 [Compound C-47, 5-[4-[(E)-[(Z)-[3-(2-isopropylphenyl)-4-oxo-thiazolidin-2-ylidene]hydrazono]methyl]phenyl]-2-methyl-N-[4-(trifluoromethoxy)phenyl]pyrazole-3-carboxamide]
mortality at 800 ppm [1]: ≥ 50%
mortality at 800 ppm [4]: ≥ 75%
mortality at 500 ppm [5]: ≥ 75%
mortality at 300 ppm [6]: ≥ 75%

CC(C)c1ccccc1NC(=S)N/N=C/c1ccc(-c2cc(NC(=O)c3ccc(OC(F)(F)F)cc3)[nH]n2)cc1 [Compound C-57, N-[3-[4-[(E)-[(2-isopropylphenyl)carbamothioylhydrazono]methyl]phenyl]-1H-pyrazol-5-yl]-4-(trifluoromethoxy)benzamide]
mortality at 800 ppm [1]: ≥ 50%
mortality at 500 ppm [2]: ≥ 75%
mortality at 800 ppm [3]: ≥ 75%
mortality at 800 ppm [4]: ≥ 75%
mortality at 500 ppm [5]: ≥ 75%

CC(C)c1ccccc1N1C(=O)CS/C1=N\N=C\c1ccc(-c2cc(NC(=O)c3ccc(OC(F)(F)F)cc3)[nH]n2)cc1 [Compound C-58, N-[3-[4-[(E)-[(Z)-[3-(2-isopropylphenyl)-4-oxo-thiazolidin-2-ylidene]hydrazono]methyl]phenyl]-1H-pyrazol-5-yl]-4-(trifluoromethoxy)benzamide]
mortality at 800 ppm [1]: ≥ 50%
mortality at 500 ppm [2]: ≥ 75%
mortality at 800 ppm [3]: ≥ 75%
mortality at 800 ppm [4]: ≥ 75%
mortality at 500 ppm [5]: ≥ 75%

CC(C)c1ccccc1NC(=S)N/N=C/c1ccc(-c2nc(NC(=O)c3ccc(OC(F)(F)F)cc3)n(C)n2)cc1 [Compound C-63, N-[5-[4-[(E)-[(2-isopropylphenyl)carbamothioylhydrazono]methyl]phenyl]-2-methyl-1,2,4-triazol-3-yl]-4-(trifluoromethoxy)benzamide]
mortality at 500 ppm [2]: ≥ 75%
mortality at 800 ppm [3]: ≥ 75%
mortality at 800 ppm [4]: ≥ 75%
mortality at 500 ppm [5]: ≥ 75%
